Experimental data reported in patent US20250092044A1, “Kinase Inhibitors” (Incyte Corporation, priority 2023, published 2025).
pIC50: −log10 of the molar value.

Legend:
[1] = biological target: pseudo-kinase domain (JH2) of human V617F mutant JAK2 (Homo sapiens (Human), UniProt O60674, F794H/V617F/W659A/W777A); experiment: JAK2 LanthaScreen JH2-V617F Binding Assay; settings: read-out: JH2 V617F Bind IC50
Protocol: JAK2 JH2-V617F binding assay utilizes pseudo-kinase domain (JH2, amino-acids 536-812 with 3 surface mutations W659A, W777A, F794H) of human V617F mutant JAK2 expressed as C-terminal His-Avi-tagged, biotinylated protein in a baculovirus expression system (BPS Bioscience, Catalog #79498). The assay was conducted in black 384-well polystyrene plates in a final reaction volume of 20 μL. JAK2 JH2-V617F (0.26 nM) was incubated with compounds (100 nL serially diluted in DMSO) in the presence of 50 nM Fluorescent JAK2-JH2 Tracer (MedChem Express Catalog #HY-102055) and 0.25 nM Streptavidin-Tb cryptate (Cisbio Part #610SATLB) in assay buffer (50 mM Tris, pH=7.5, 10 mM MgCl2, 0.01% Brij-35, 0.1% BSA, 1 mM EGTA, 5% Glycerol and 5 mM DTT). Non-specific binding was accessed in the presence of 2 mM ATP. After incubation for 1 hour at 25° C., LanthaScreen signals were read on a PHERAstar FS plate reader (BMG LABTECH). Data was analyzed with IDBS XLfit and GraphPad Prism 5.0 software using a four parameter dose response curve to determine IC50 for each compound.

[2] = biological target: catalytic domain (JH1) of human JAK2 (Homo sapiens (Human), UniProt O60674); experiment: JAK2 LanthaScreen JH1 Binding Assay; settings: read-out: JH1 Bind IC50
Protocol: JAK2 JH1 binding assay utilizes catalytic domain (JH1, amino acids 826-1132) of human JAK2 expressed as N-terminal FLAG-tagged, biotinylated protein in a baculovirus expression system (Carna Biosciences, Product #08-445-20N). The assay was conducted in black 384-well polystyrene plates in a final reaction volume of 20 μL. JAK2 JH1 (1.5 nM) was incubated with compounds (100 nL serially diluted in DMSO) in the presence of 50 nM fluorescent JAK2-JH1 tracer and 0.5 nM Streptavidin-Tb cryptate (Cisbio Part #610SATLB) in assay buffer (50 mM Tris, pH=7.5, 10 mM MgCl2, 0.01% Brij-35, 0.1% BSA, 1 mM EGTA, 5% Glycerol and 5 mM DTT). Non-specific binding was accessed in the presence of 2 mM ATP. After incubation for 2 hours at 25° C., LanthaScreen signals were read on a PHERAstar FS plate reader (BMG LABTECH). Data was analyzed with IDBS XLfit and GraphPad Prism 5.0 software using a four parameter dose response curve to determine IC50 for each compound.

[3] = test system: STAT5 (Tyr694) phosphorylation in SET-2 cells; experiment: STAT5 (Tyr694) Phosphorylation Cell Based Assay; settings: Homo sapiens, 2 hours, read-out: SET2 IC50
Protocol: SET-2 cells was purchased from DSMZ (Germany). RPMI1640 medium, Fetal Bovine Serum and 384-white sold flat-bottom small volume plate were purchased from Thermo Fisher Scientific (Waltham, MA). Phospho-STAT5 (Tyr694) HTRF kit was purchased from Perkin Elmer (Waltham, MA).
SET-2 cells were cultured in RPMI media with 20% FBS at 37° C. in humidified incubator supplied with 5% CO2. On the day of assay, the cells were centrifuged to remove the culture media and resuspended with prewarmed RPMI with 10% FBS. Testing compounds were prepared by serial dilution in DMSO and 50 nL/well test compounds were transferred to the 384 white low volume cell culture plate (Greiner Bio-one) by ECHO liquid handler (Labcyte). The cells were then dispensed with Multidrop (Thermo Fisher, Waltham, MA) at 10 μL/well (7×10^6 cells/mL) with 0.5% DMSO in the final assay. After the treated cells were incubated for 2 hours at 37° C./5% CO2 incubator, 4 μL/well supplemented lysis buffer (100× blocking buffer diluted 25 fold in 4× lysis buffer, Perkin Elmer) were added and incubated at room temperature for 90 min on orbital shaker at 600 rpm. Phospho-STAT5 Cryptate antibody and Phospho-STAT5 d2 antibody (1:1 vol/vol) were premixed and diluted 20 fold with in the detection buffer (Perkin Elmer). 4 μL of the premixed antibody solution were added to each well followed with 24 hours incubation at room temperature on orbital shaker at 600 rpm. The product activity was determined by measuring the fluorescence at 620 nm and 665 nm on Pherastar microplate reader (BMG Labtech). A ratio is calculated (665/620) for each well. Wells with DMSO only served as the positive controls and wells containing high concentration of control compound were used as negative controls. IC50 determination was performed by fitting the curve of percent control activity versus the log of the compound concentration using the GraphPad Prism 7.0 software.

Sequence of pseudo-kinase domain (JH2) of human V617F mutant JAK2 (O60674 536-812 V617F/W659A/W777A/F794H): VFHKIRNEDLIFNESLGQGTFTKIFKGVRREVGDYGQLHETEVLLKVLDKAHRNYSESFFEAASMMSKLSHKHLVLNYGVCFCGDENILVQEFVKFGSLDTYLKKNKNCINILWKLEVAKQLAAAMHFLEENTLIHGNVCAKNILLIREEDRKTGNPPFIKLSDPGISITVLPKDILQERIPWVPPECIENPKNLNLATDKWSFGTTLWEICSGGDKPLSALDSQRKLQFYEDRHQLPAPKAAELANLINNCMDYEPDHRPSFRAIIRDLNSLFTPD
Sequence of catalytic domain (JH1) of human JAK2 (O60674 826-1132): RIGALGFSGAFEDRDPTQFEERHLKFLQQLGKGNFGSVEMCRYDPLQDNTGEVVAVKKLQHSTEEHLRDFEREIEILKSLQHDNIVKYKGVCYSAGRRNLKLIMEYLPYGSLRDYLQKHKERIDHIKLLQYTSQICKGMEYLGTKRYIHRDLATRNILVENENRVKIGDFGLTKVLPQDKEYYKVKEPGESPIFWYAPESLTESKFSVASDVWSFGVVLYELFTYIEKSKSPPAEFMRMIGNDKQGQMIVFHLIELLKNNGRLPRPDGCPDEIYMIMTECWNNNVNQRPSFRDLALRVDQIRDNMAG

SMILES | pIC50 [1] | pIC50 [2] | pIC50 [3]
CNC(=O)c1ccc(-c2[nH]c3ncc4c(c3c2-c2cccc(F)c2)n([C@@H]2CC[C@@H](NC(=O)OC)C2)c(=O)n4C)cc1F [Example 1, Methyl ((1R,3R)-3-(7-(3-fluoro-4-(methylcarbamoyl)phenyl)-8-(3-fluorophenyl)-3-methyl-2-oxo-3,6-dihydroimidazo[4,5-d]pyrrolo[2,3-b]pyridin-1(2H)-yl)cyclopentyl)carbamate] | ≥ 8.00 | < 6.00 | < 6.10
COC(=O)N[C@@H]1CC[C@@H](n2c(=O)n(C)c3cnc4[nH]c(-c5ccc(C(=O)NC(C)C)c(F)c5)c(-c5cccc(F)c5)c4c32)C1 [Example 2, Methyl ((1R,3R)-3-(7-(3-fluoro-4-(isopropylcarbamoyl)phenyl)-8-(3-fluorophenyl)-3-methyl-2-oxo-3,6-dihydroimidazo[4,5-d]pyrrolo[2,3-b]pyridin-1(2H)-yl)cyclopentyl)carbamate] | ≥ 8.00 | < 6.00 | < 6.10
CCn1c(=O)n(C2CCCC2)c2c3cc(-c4ccc(CN5CCC(S(C)(=O)=O)CC5)cc4)[nH]c3ncc21 [Comparative Example G, reference compound] | < 6.00 |  | 
COC(=O)N[C@@H]1CC[C@@H](n2c(=O)n(C)c3cnc4[nH]c(-c5ccc(C(=O)N6CC(OC)C6)c(F)c5)c(-c5ccc6c(cnn6C(C)C)c5)c4c32)C1 [Example 17, Methyl ((1R,3R)-3-(7-(3-fluoro-4-(3-methoxyazetidine-1-carbonyl)phenyl)-8-(1-isopropyl-1H-indazol-5-yl)-3-methyl-2-oxo-3,6-dihydroimidazo[4,5-d]pyrrolo[2,3-b]pyridin-1(2H)-yl)cyclopentyl)carbamate] | ≥ 8.00 | < 6.00 | < 6.10
CNC(=O)c1c(F)cc(-c2[nH]c3ncc4c(c3c2-c2cccc(F)c2)n([C@@H]2CC[C@@H](NC(=O)OC)C2)c(=O)n4C)cc1F [Example 3, Methyl ((1R,3R)-3-(7-(3,5-difluoro-4-(methylcarbamoyl)phenyl)-8-(3-fluorophenyl)-3-methyl-2-oxo-3,6-dihydroimidazo[4,5-d]pyrrolo[2,3-b]pyridin-1(2H)-yl)cyclopentyl)carbamate] | ≥ 8.00 | < 6.00 | < 6.10
COC(=O)N[C@@H]1CC[C@@H](n2c(=O)n(C)c3cnc4[nH]c(-c5cc(F)c(C(=O)NC6CC6)c(F)c5)c(-c5cccc(F)c5)c4c32)C1 [Example 4, Methyl ((1R,3R)-3-(7-(4-(cyclopropylcarbamoyl)-3,5-difluorophenyl)-8-(3-fluorophenyl)-3-methyl-2-oxo-3,6-dihydroimidazo[4,5-d]pyrrolo[2,3-b]pyridin-1(2H)-yl)cyclopentyl)carbamate] | ≥ 8.00 | < 6.00 | < 6.10
